Test systems include NCI-H23; SK-OV-3; OVCAR-4; HCT-15; M14; OVCAR-5; TK-10; SR; Malme-3M; IGROV-1; NCI/ADR-RES; RPMI-8226; HCC 2998; UO-31; HOP-62; HCT-116; A498; SK-MEL-2; OVCAR-8; RXF 393.
Common to all, as to assay: inhibition of tumour cell growth, NCI panel, 48 h

Each structure is given as a SMILES string.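 Method: 48-hour compound exposure of cells in 96-well plates, five concentrations, linear interpolation of endpoints. Abbreviation: GI50, concentration required for 50% inhibition of growth.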 The source made the active and inactive calls. Cut-off read from the data, not from the text of the source: active = GI50 up to about 1.1 µM and inactive = higher.

For the compound `COc1ccc(C(c2cc(OC)c(OC)c(OC)c2)N2C(=O)CCC2C(=O)O)cc1` (centres undefined), the GI50 is 82.8 µM (inactive) in the assay with NCI-H23; 60.1 µM (inactive) with SK-OV-3; > 100 µM (inactive) in the assay on OVCAR-4; 43.9 µM with HCT-15; 38.3 µM (inactive) in the assay on M14; 61.5 µM (inactive) in the assay with OVCAR-5. For the same compound, the GI50 was > 100 µM (inactive) in the assay with TK-10; 49.7 µM (inactive) in the assay with SR; 68.9 µM (inactive) with Malme-3M; 84.5 µM (inactive) with IGROV-1; > 100 µM (inactive) in the assay with NCI/ADR-RES; 49.8 µM (inactive) with RPMI-8226. Besides, the GI50 in the assay with HCC 2998 was 50.2 µM (inactive); in the assay on UO-31, 56.4 µM (inactive); in the assay on HOP-62, > 100 µM (inactive); in the assay with HCT-116, 35.5 µM (inactive); in the assay with A498, 77.1 µM (inactive); in the assay on SK-MEL-2 it was 46.8 µM (inactive). In addition, the GI50 with OVCAR-8 was 41.8 µM (inactive).
Take `Brc1sc(Br)c2c1[C@H](Br)C[C@@H]2Br`: the GI50 is 24.3 µM (inactive) in the assay with NCI-H23; 59.8 µM (inactive) with SK-OV-3; 0.0689 µM (active) in the assay on RXF 393; 23.5 µM (inactive) in the assay on OVCAR-4; 28.4 µM in the assay on HCT-15; 29.2 µM (inactive) with M14. Besides, the GI50 in the assay with OVCAR-5 was > 100 µM (inactive); in the assay on TK-10 it was > 100 µM (inactive); with SR, 22.4 µM (inactive); in the assay with Malme-3M it was 23.9 µM (inactive); with IGROV-1, 26.9 µM (inactive); in the assay on NCI/ADR-RES, 23 µM (inactive). Moreover, the GI50 was 19.6 µM (inactive) with UO-31; 64.9 µM (inactive) in the assay with HOP-62; 37.2 µM (inactive) in the assay on HCT-116; 40.3 µM (inactive) in the assay with A498; 24.6 µM (inactive) in the assay on SK-MEL-2; 21.6 µM (inactive) with OVCAR-8.
`Cc1oc(N)c(S(=O)(=O)c2cc3ccccc3[n+]([O-])c2N)c1C`: the GI50 was > 100 µM (inactive) in the assay on NCI-H23; > 100 µM (inactive) in the assay with SK-OV-3; > 100 µM (inactive) in the assay with OVCAR-4; above 100 µM in the assay with HCT-15; > 100 µM (inactive) with M14; > 100 µM (inactive) in the assay on OVCAR-5. Besides, the GI50 in the assay on TK-10 was > 100 µM (inactive); in the assay with SR, < 0.01 µM (active); in the assay with Malme-3M, > 100 µM (inactive); with IGROV-1, > 100 µM (inactive); in the assay on NCI/ADR-RES it was > 100 µM (inactive); with RPMI-8226 it was > 100 µM (inactive). Moreover, the GI50 with HCC 2998, in the assay with UO-31, with HOP-62, with A498, in the assay with SK-MEL-2 and with OVCAR-8 was > 100 µM (inactive) in each case.
Consider `O=C(NCCNCCCNC(=O)c1cc(-c2ccccc2)nc2ccccc12)c1cccc(OCc2ccccc2)c1OCc1ccccc1`, for which the GI50 in the assay with NCI-H23 was 1.83 µM (inactive); with SK-OV-3, 1.71 µM (inactive); in the assay on RXF 393 it was 2.13 µM (inactive); in the assay with OVCAR-4, 1.64 µM (inactive); with HCT-15, 1.74 µM; in the assay with M14 it was 1.65 µM (inactive). The GI50 is 1.91 µM (inactive) with OVCAR-5; 1.77 µM (inactive) in the assay on TK-10; 0.889 µM (active) with SR; 2.07 µM (inactive) in the assay on Malme-3M; 1.85 µM (inactive) with IGROV-1; 1.87 µM (inactive) in the assay on NCI/ADR-RES. The GI50 in the assay with RPMI-8226 was 2.48 µM (inactive); with HCC 2998, 1.26 µM (inactive); in the assay on UO-31, 1.66 µM (inactive); in the assay with HOP-62, 1.65 µM (inactive); with HCT-116, 1.71 µM (inactive); in the assay with A498, 1.6 µM (inactive). Also, in the assay with OVCAR-8, the GI50 was 1.71 µM (inactive).
With `CC(=O)NC(C)(C)C1CC=C(C)CC1` (centres undefined), the GI50 was > 100 µM (inactive) with NCI-H23; > 100 µM (inactive) in the assay with SK-OV-3; > 100 µM (inactive) in the assay on RXF 393; > 100 µM (inactive) in the assay with OVCAR-4; above 100 µM with HCT-15; > 100 µM (inactive) in the assay with M14. Further, the GI50 in the assay on OVCAR-5, in the assay with TK-10, in the assay on SR, in the assay with Malme-3M, in the assay with IGROV-1 and in the assay on NCI/ADR-RES was > 100 µM (inactive) in each case. For the same compound, the GI50 with RPMI-8226, in the assay with HCC 2998, in the assay with UO-31, in the assay with HOP-62, with HCT-116 and with A498 was > 100 µM (inactive) throughout. Besides, the GI50 in the assay with OVCAR-8 is > 100 µM (inactive).
On to `CC(=O)O[C@H]1[C@H](OC(=O)CC(C)(O)CC(=O)O)C[C@]2(C)C3=C(CCC2C1(C)C)[C@]1(C)CC[C@H]([C@H]2CC[C@H](C(C)(C)O)OC2O)[C@@]1(C)[C@@H](O)C3` (some centres undefined), for which the GI50 in the assay on NCI-H23 was 16.6 µM (inactive); in the assay with SK-OV-3 it was 16.7 µM (inactive); with OVCAR-4 it was 19.7 µM (inactive); in the assay on HCT-15, 17.2 µM; in the assay on M14, 17.8 µM (inactive); with OVCAR-5 it was 17.3 µM (inactive). For the same compound, the GI50 was 30.9 µM (inactive) in the assay with TK-10; 25.6 µM (inactive) in the assay with SR; 23.7 µM (inactive) in the assay on Malme-3M; 17.1 µM (inactive) in the assay with IGROV-1; > 100 µM (inactive) in the assay on NCI/ADR-RES; 20.9 µM (inactive) with RPMI-8226. Further, the GI50 in the assay on HCC 2998 is 15.8 µM (inactive); in the assay with UO-31, 13.1 µM (inactive); in the assay on HOP-62 it was 16.3 µM (inactive); in the assay with HCT-116 it was 20.7 µM (inactive); in the assay with A498, 12.9 µM (inactive); with SK-MEL-2, 18.8 µM (inactive). The GI50 in the assay with OVCAR-8 was 18.7 µM (inactive).
With `CN1COCc2c1ccc1cc3ccc4c(c3nc21)COCN4S(C)(=O)=O`, the GI50 was > 100 µM (inactive) in the assay with NCI-H23; > 100 µM (inactive) in the assay with SK-OV-3; > 100 µM (inactive) with RXF 393; > 100 µM (inactive) in the assay with OVCAR-4; above 100 µM in the assay with HCT-15; > 100 µM (inactive) in the assay with M14. The GI50 in the assay on OVCAR-5 is > 100 µM (inactive); in the assay with TK-10, > 100 µM (inactive); with SR, 3.73 µM (inactive); in the assay with Malme-3M it was > 100 µM (inactive); in the assay with IGROV-1, > 100 µM (inactive); with NCI/ADR-RES, > 100 µM (inactive). Also, the GI50 in the assay with HCC 2998, in the assay with UO-31, with HOP-62, in the assay with HCT-116, in the assay with A498 and in the assay on OVCAR-8 was > 100 µM (inactive) each time.
`O=C(O)Cc1cccc2c(=O)c3cccc([N+](=O)[O-])c3[nH]c12`: the GI50 in the assay on NCI-H23 is > 100 µM (inactive); in the assay on SK-OV-3 it was > 100 µM (inactive); in the assay on OVCAR-4, 38.1 µM (inactive); with HCT-15 it was 71.8 µM; with M14, 27.8 µM (inactive); in the assay on OVCAR-5, 36.5 µM (inactive). Besides, the GI50 in the assay with TK-10 was > 100 µM (inactive); in the assay on SR, 21.4 µM (inactive); with Malme-3M, 29.4 µM (inactive); with IGROV-1 it was > 100 µM (inactive); in the assay with NCI/ADR-RES, > 100 µM (inactive); in the assay with RPMI-8226 it was 12.9 µM (inactive). Besides, the GI50 was 60.3 µM (inactive) in the assay with HCC 2998; > 100 µM (inactive) with UO-31; 31.4 µM (inactive) in the assay with HOP-62; > 100 µM (inactive) in the assay with HCT-116; > 100 µM (inactive) with A498; 72.1 µM (inactive) in the assay with SK-MEL-2. Besides, in the assay with OVCAR-8, the GI50 is > 100 µM (inactive).

These data come from ChEMBL document CHEMBL1201862, “PubChem BioAssay data set” (2004).
